From the CheMixHub viscosity set

Test: xn = mol fraction of the nth substance listed

C1CCCC1 + CCC(C)=O
viscosity [mPa·s], 101.33 kPa
Settings	293.15 K	298.15 K	303.15 K
x1 = 0.0472	0.397	0.377	0.358
x1 = 0.0981	0.395	0.375	0.358
x1 = 0.1929	0.394	0.372	0.354
x1 = 0.2932	0.39	0.37	0.353
x1 = 0.3753	0.39	0.37	0.352
x1 = 0.4966	0.393	0.373	0.354
x1 = 0.6189	0.394	0.374	0.355
x1 = 0.6838	0.398	0.377	0.359
x1 = 0.8034	0.407	0.387	0.367
x1 = 0.9061	0.419	0.397	0.377
x1 = 0.9499	0.426	0.405	0.383

COC(=O)CCCCC(=O)OC + CCC(C)=O
100 kPa
Settings	viscosity [mPa·s]
308.15 K, x1 = 0.2002	0.5865
318.15 K, x1 = 0.3002	0.6465
323.15 K, x1 = 0.4004	0.7425

C1CCCC1 + CCC(C)O
101 kPa
Settings	viscosity [mPa·s]
298.15 K, x1 = 0.0967	2.238
298.15 K, x1 = 0.1932	1.702
298.15 K, x1 = 0.2298	1.578
298.15 K, x1 = 0.2524	1.454
298.15 K, x1 = 0.3078	1.253
298.15 K, x1 = 0.3627	1.081
298.15 K, x1 = 0.4215	0.936
298.15 K, x1 = 0.5078	0.7825
298.15 K, x1 = 0.5772	0.6742
298.15 K, x1 = 0.7238	0.5339
298.15 K, x1 = 0.8256	0.4728
298.15 K, x1 = 0.9298	0.4297
308.15 K, x1 = 0.0075	2.095
308.15 K, x1 = 0.047	1.917
308.15 K, x1 = 0.0598	1.7
308.15 K, x1 = 0.0917	1.552
308.15 K, x1 = 0.107	1.509
308.15 K, x1 = 0.2217	1.298
308.15 K, x1 = 0.2626	1.177
308.15 K, x1 = 0.3099	1.049
308.15 K, x1 = 0.3653	0.8998
308.15 K, x1 = 0.4219	0.8068
308.15 K, x1 = 0.496	0.6842
308.15 K, x1 = 0.5716	0.5943
308.15 K, x1 = 0.6554	0.5084
308.15 K, x1 = 0.7457	0.4481
308.15 K, x1 = 0.845	0.4249
308.15 K, x1 = 0.9255	0.3819
308.15 K, x1 = 0.9753	0.3779

CN1CCCC1=O + CCC(C)O
viscosity [mPa·s], 101.3 kPa
Settings	x2 = 0.1049	x2 = 0.4019	x2 = 0.5003
293.15 K	1.815	–	–
313.15 K	–	1.285	1.285

CCCCC(CC)C(=O)OCC(COC(=O)C(CC)CCCC)(COC(=O)C(CC)CCCC)COC(=O)C(CC)CCCC (centres undefined) + CCCCC(=O)OCC(COC(=O)CCCC)(COC(=O)CCCC)COC(=O)CCCC
Settings	viscosity [mPa·s]
313.15 K, 100 kPa, x1 = 0.6911	32.3
